Data on 65 compounds can be found in ChEMBL document CHEMBL3407366, “Original 2-(3-alkoxy-1H-pyrazol-1-yl)pyrimidine derivatives as inhibitors of human dihydroorotate dehydrogenase (DHODH)” (J Med Chem, 2015).

Converted amounts (≈) assume the structure as drawn. The source made the active and inactive calls. The calls are words filed in the database; no cut-off is given here. A value given as a limit tells only on which side of the number the result lay.

In data set [1] the test system is Measles morbillivirus. As to the kind of experiment: Antiviral activity against Measles virus expressing firefly luciferase rMV2/Luc infected in human HEK293 cells assessed as bioluminescence level after 6 mins by luminometry. The format is functional. The settings on record: for MIC50: Measles morbillivirus, 0.1 h.
For the next data set, the system named is HEK293. The data set can be described thus: Cytotoxicity against human HEK293 cells assessed as cell viability after 24 hrs by CellTiter-Glo assay. Format: cell-based. The settings on record: hek293, 24 h.
The target in data set [2] is Dihydroorotate dehydrogenase (quinone), mitochondrial (Homo sapiens, UniProt Q02127). The data set can be described thus: Inhibition of His-tagged human DHODH assessed as reduction of DCIP by spectrophotometry.
Dihydroorotate dehydrogenase (quinone), mitochondrial, sequence (Q02127 whole entry): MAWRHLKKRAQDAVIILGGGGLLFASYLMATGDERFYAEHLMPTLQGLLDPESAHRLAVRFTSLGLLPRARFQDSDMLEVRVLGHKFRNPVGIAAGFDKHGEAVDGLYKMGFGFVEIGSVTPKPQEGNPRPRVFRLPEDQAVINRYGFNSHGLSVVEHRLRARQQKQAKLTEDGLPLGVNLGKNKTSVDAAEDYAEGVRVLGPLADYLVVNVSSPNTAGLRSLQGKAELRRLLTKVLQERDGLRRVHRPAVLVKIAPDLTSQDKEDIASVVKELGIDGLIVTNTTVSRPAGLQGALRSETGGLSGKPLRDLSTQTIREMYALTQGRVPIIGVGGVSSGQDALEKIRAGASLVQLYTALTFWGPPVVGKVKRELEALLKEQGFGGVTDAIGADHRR
The test system of data set [3] is Measles morbillivirus. The data set can be described thus: Antiviral activity against measles virus expressing firefly luciferase rMV2/Luc infected in human HEK293 cells assessed as bioluminescence level at 16 to 195 nM after 6 mins by luminometry in presence of dihydroorotic acid. Format: functional, organism-based.
Data set [4] has as its system Measles morbillivirus. As to the kind of experiment: Antiviral activity against measles virus expressing firefly luciferase rMV2/Luc infected in human HEK293 cells assessed as bioluminescence level at 16 to 195 nM after 6 mins by luminometry in presence of uridine. The format is functional, organism-based.
The subject of data set [5] is Measles morbillivirus. As to the kind of experiment: Antiviral activity against measles virus expressing firefly luciferase rMV2/Luc infected in human HEK293 cells assessed as bioluminescence level at 16 to 195 nM after 6 mins by luminometry in presence of orotic acid. Format: functional, organism-based.

Consider `CCc1cnc(-n2nc(OC(C)C)c(Cc3ccc(F)cc3)c2C)nc1`, for which, in the data set on Measles morbillivirus [1], the pMIC50 is reported as 7.4.
Regarding `CCc1cnc(-n2nc(OCCO)c(Cc3ccccc3)c2C)nc1`, the pMIC50 in the data set with Measles morbillivirus [1] came to 6.6.
Still for that read-out and setting: the figure for `CCC(CC)Oc1nn(-c2ncc(C3CC3)cn2)c(C)c1Cc1ccccc1` is 8.8.
Consider `CCOc1nn(-c2ncccn2)c(C)c1Cc1ccccc1`, for which, in the data set on Measles morbillivirus [1], the pMIC50 is listed as 5.5 and the MIC50 was 2.72 µM (≈ 0.801 µg/mL). Also, the Activity result with HEK293 is given as “Non-toxic”.
For the compound `Cc1c(Cc2ccccc2)c(O)nn1-c1ncc(C2CC2)cn1`, the pMIC50 in the data set on Measles morbillivirus [1] is given as 5.6.
On the same count and under the same terms, the figure for `CCOc1nn(-c2ncc(OC)cn2)c(C)c1Cc1ccccc1` is 6.2.
As for `CCOc1nn(-c2ccc(C)cn2)c(C)c1Cc1ccccc1`, in the data set on Measles morbillivirus [1], the pMIC50 is 6.2 and the MIC50 stood at 0.65 µM (≈ 0.2 µg/mL). In addition, in the data set with HEK293, the Activity entry was “Non-toxic”.
Consider `CCOc1nn(-c2ncc(CC)cn2)c(C)c1C(=O)c1ccccc1`, for which the pMIC50 with Measles morbillivirus [1] worked out at 6.2.
Same read-out and setting: the figure for `CCc1ccc(-n2nc(OC(C)C)c(Cc3ccccc3)c2C)cc1` is 6.2; for `Cc1c(Oc2c(F)cccc2F)c(OC(C)C)nn1-c1ncccn1` it is 5.6.
Take `CCOc1nn(-c2ncc(CC)cn2)c(C)c1Sc1ccccc1`: the pMIC50 in the data set with Measles morbillivirus [1] was determined as 6.9.
Take `CCc1cnc(-n2nc(OC(C)C)c(Oc3cc(F)ccc3F)c2C)nc1`: the pMIC50 in the data set on Measles morbillivirus [1] is reported as 7.3.
As to `CCOc1nn(-c2ncc(Br)cn2)c(C)c1Cc1ccccc1`, the pMIC50 in the data set with Measles morbillivirus [1] was found to be 7.
Consider `CC(C)Oc1nn(-c2ncc(C3CC3)cn2)c(CN(C)C)c1Cc1ccccc1`, for which, in the data set on Measles morbillivirus [1], the pMIC50 is listed as less than 5.
The same measure, in the same setting: the figure for `CCCc1cnc(-n2nc(OC(C)C)c(Oc3c(F)cccc3F)c2C)nc1O` is 7.2; for `CCOc1nn(-c2ncc(CC)cn2)c(C)c1Oc1cc(Cl)cc(Cl)c1` it is 5.9; for `CCOc1nn(-c2ncc(CC)cn2)c(C)c1-c1ccccc1` it is 5.4.
The same measure, in the same setting: the figure for `CCOc1nn(-c2ncc(C3CC3)cn2)c(C)c1Cc1ccccc1` is 7.6.
Still for that read-out and setting: the figure for `Cc1c(Oc2c(F)cccc2F)c(OC(C)C)nn1-c1ncc(F)cn1` is 6.6.
As for `CCOc1nn(-c2ncc(CC)cn2)c(C)c1Oc1cc(Cl)ccc1Cl`, in the data set with Measles morbillivirus [1], the pMIC50 is recorded as 7.6.
With `Cc1cnc(-n2nc(OC(C)C)c(Oc3c(F)cccc3F)c2C)nc1`, in the data set with Measles morbillivirus [1], the pMIC50 is given as 7.9.
On the same count and under the same terms, the figure for `CCc1cnc(-n2nc(OC(C)C)c(Oc3ccc(F)cc3F)c2C)nc1` is 7.9; for `CCc1cnc(-n2nc(OC(C)C)c(Oc3c(F)cccc3F)c2C)nc1` it is 9.1.
As for `CCc1cnc(-n2nc(OC(C)C)c(Cc3ccccc3F)c2C)nc1`, the pMIC50 in the data set with Measles morbillivirus [1] turned out to be 8.8.
On to `CCC(C)Oc1nn(-c2ncc(C3CC3)cn2)c(C)c1Cc1ccccc1` (centres undefined), for which the pMIC50 with Measles morbillivirus [1] came to 8.7.
The same measure, in the same setting: the figure for `COc1nn(-c2ncc(C3CC3)cn2)c(C)c1Cc1ccccc1` is 7.3; for `CCc1cnc(-n2nc(OC(C)C)c(Cc3ccccc3)c2C)nc1` it is 8.4.
On the same count and under the same terms, the figure for `CCN(CC)Cc1c(Cc2ccccc2)c(OC(C)C)nn1-c1ncc(C2CC2)cn1` is 5.1.
Turning to `CCOc1nn(-c2ncc(CC)cn2)c(C)c1Oc1ccccc1Br`, the pMIC50 with Measles morbillivirus [1] stood at 6.9. The IC50 in data set [2] was 126 nM.
On to `CCc1cnc(-n2nc(OCCOCc3ccccc3)c(Cc3ccccc3)c2C)nc1`, for which the pMIC50 in the data set on Measles morbillivirus [1] turned out to be 7.3.
For the compound `Cc1c(Oc2c(F)cccc2F)c(OC(C)C)nn1-c1ncc(C2CC2)cn1`, in the data set on Measles morbillivirus [1], the pMIC50 is 8.9.
Same read-out and setting: the figure for `CCOc1nn(-c2ncc(CC)cn2)c(C)c1Oc1ccc(C(F)(F)F)cc1` is 5.2; for `CCc1cnc(-n2nc(OC(C)C)c(Oc3cccc(F)c3)c2C)nc1` it is 6.6; for `C/C(O)=C(\C#N)C(=O)Nc1ccc(C(F)(F)F)cc1` [TERIFLUNOMIDE] it is 5.3.
On the same count and under the same terms, the figure for `CCOc1nn(-c2ncc(CC)cn2)c(C)c1Oc1ccccc1Cl` is 6.9.
The same measure, in the same setting: the figure for `Cc1c(C(O)c2ccccc2)c(OC(C)C)nn1-c1ncc(C2CC2)cn1` (centres undefined) is 8.8; for `CCCc1cnc(-n2nc(OC(C)C)c(Oc3c(F)cccc3F)c2C)nc1` it is 8.5.
Consider `CCOc1nn(-c2ncc(CC)c(C)n2)c(C)c1Cc1ccccc1`, for which the pMIC50 in the data set on Measles morbillivirus [1] is given as 7.4.
Same read-out and setting: the figure for `CCCc1cnc(-n2nc(OCC)c(Cc3ccccc3)c2C)nc1` is 7.5; for `CCOc1nn(-c2ncc(CC)cn2)c(C)c1Oc1cccc(Cl)c1Cl` it is 6.8; for `Cc1nn(-c2ncc(C3CC3)cn2)c(OC(C)C)c1Cc1ccccc1` it is 6.8.
On the same count and under the same terms, the figure for `CCOc1nn(-c2ncc(CC)cn2)c(C)c1Oc1ccccc1C(F)(F)F` is 6.2; for `Cc1c(Oc2c(F)cccc2F)c(OC(C)C)nn1-c1ncc(Br)cn1` it is 7.9; for `Cc1cnc(-n2nc(OC(C)C)c(Oc3c(F)cccc3F)c2C)nc1O` it is 6.8.
For the compound `CCCCCc1cnc(-n2nc(OCC)c(Cc3ccccc3)c2C)nc1`, the pMIC50 in the data set on Measles morbillivirus [1] is given as less than 5.
Same read-out and setting: the figure for `CCOc1nn(-c2ncc(CC)cn2)c(C)c1Oc1ccccc1F` is 7.2.
Same read-out and setting: the figure for `CCOc1nn(-c2ncc(CC)cn2)c(C)c1I` is 4.9; for `Cc1c(Cc2ccccc2)c(OC(C)C)nn1-c1ncc(C2CC2)cn1` it is 8.2; for `CCc1cnc(-n2nc(OC(C)C)c(Oc3ccc(F)cc3)c2C)nc1` it is 6.5.
The same measure, in the same setting: the figure for `CCc1cnc(-n2nc(CC(C)C)c(Cc3ccccc3)c2C)nc1` is 7.5; for `CCc1cnc(-n2nc(OC(C)C)c(Oc3ccccc3F)c2C)nc1` it is 8.1.
For `COCc1c(Cc2ccccc2)c(OC(C)C)nn1-c1ncc(C2CC2)cn1`, the pMIC50 in the data set with Measles morbillivirus [1] was 7.2.
In the case of `Cc1c(Cc2ccccc2F)c(OC(C)C)nn1-c1ncc(C2CC2)cn1`, the pMIC50 with Measles morbillivirus [1] came out at 8.9. Besides, in data set [2], the IC50 was 12.6 nM.
As to `CCOc1nn(-c2ncc(C)cn2)c(C)c1Cc1ccccc1`, the pMIC50 in the data set with Measles morbillivirus [1] stood at 7.5.
Turning to `CCOc1nn(-c2ncc(CC)cn2)c(C)c1Oc1ccccc1`, the pMIC50 in the data set on Measles morbillivirus [1] is reported as 6.2.
On the same count and under the same terms, the figure for `CCc1cnc(-n2nc(OC(C)C)c(Oc3c(F)cccc3F)c2C)nc1O` is 7.8; for `CCc1cnc(-n2nc(OC(C)C)c(Cc3cccc(F)c3)c2C)nc1` it is 8.2.
On the same count and under the same terms, the figure for `CCOc1nn(-c2nccc(C)n2)c(C)c1Cc1ccccc1` is 6.1.
With `CCOc1nn(-c2ncc(CC)cn2)c(C)c1Oc1cccc(C(F)(F)F)c1`, the pMIC50 in the data set on Measles morbillivirus [1] amounted to 7.3.
For the compound `CCOc1nn(-c2ncc(CC)cn2)c(C)c1Cc1ccccc1`, the pMIC50 with Measles morbillivirus [1] is listed as 7.7. In addition, the result in the data set on Measles morbillivirus [3] was Active. Moreover, the outcome with Measles morbillivirus [4] and in the data set on Measles morbillivirus [5] was inactive.
With `CCc1cnc(-n2nc(O)c(Cc3ccccc3)c2C)nc1`, the pMIC50 in the data set with Measles morbillivirus [1] was 6.3.
Same read-out and setting: the figure for `Cc1c(Oc2c(F)cccc2F)c(OC(C)C)nn1-c1nccc(O)n1` is less than 5; for `COc1cnc(-n2nc(OC(C)C)c(Oc3c(F)cccc3F)c2C)nc1` it is 7.3; for `CCc1cnc(-n2nc(OC(C)C)c(Oc3cccc(F)c3F)c2C)nc1` it is 7.2.
In the case of `CCc1cnc(-n2nc(OCCCN(C)C)c(Cc3ccccc3)c2C)nc1`, in the data set with Measles morbillivirus [1], the pMIC50 came to 6.1.
